Source: BindingDB's records for patent US10383835 (University of California, 2019)
pIC50: −log10 of the molar value.

Target: T1, Bifunctional epoxide hydrolase 2 (Sus scrofa, UniProt Q6Q2C2)
T1 sequence (Q6Q2C2 whole entry): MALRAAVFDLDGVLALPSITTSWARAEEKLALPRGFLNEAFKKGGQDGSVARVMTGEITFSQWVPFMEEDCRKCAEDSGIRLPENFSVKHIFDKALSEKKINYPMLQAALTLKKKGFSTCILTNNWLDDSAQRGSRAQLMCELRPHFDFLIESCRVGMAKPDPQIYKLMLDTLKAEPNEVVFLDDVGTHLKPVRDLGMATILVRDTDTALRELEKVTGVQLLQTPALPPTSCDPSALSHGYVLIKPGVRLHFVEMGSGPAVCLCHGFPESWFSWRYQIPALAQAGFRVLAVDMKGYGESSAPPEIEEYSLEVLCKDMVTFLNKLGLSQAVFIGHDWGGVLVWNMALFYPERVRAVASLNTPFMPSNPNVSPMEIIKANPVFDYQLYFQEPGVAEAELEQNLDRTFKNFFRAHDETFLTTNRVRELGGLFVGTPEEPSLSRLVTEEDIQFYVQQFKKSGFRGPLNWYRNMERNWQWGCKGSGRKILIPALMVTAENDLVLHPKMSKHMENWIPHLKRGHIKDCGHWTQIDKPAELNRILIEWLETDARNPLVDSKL
Assay: Inhibition Assay
Text: The enzyme also can be detected based on the binding of specific ligands to the catalytic site which either immobilize the enzyme or label it with a probe such as dansyl, fluoracein, luciferase, green fluorescent protein or other reagent. The enzyme can be assayed by its hydration of EETs, its hydrolysis of an epoxide to give a colored product. The assays are normally carried out with a recombinant enzyme following affinity purification.

With `CC(=O)N1CCC(NC(=O)Nc2ccc(OC(F)(F)F)cc2)CC1` [US10383835, Compound 1555] the pIC50 was 6.70.
